Measured values from patent US20210292400A1, “METHODS FOR TREATING, PREVENTING AND DETECTING THE PROGNOSIS OF COLORECTAL CANCER” (priority 2018, published 2021).
“Also recorded” adds a separate entry of the source.

Assays:
AA/C1/SB/10C (10C) cells = assay: Cell proliferation assay, 10C cells; format: cell-based, human; details: cells transfected with siRNA; compared to untreated cells; no Fn
Procedure: (§1) Full length ANXA1 was amplified by PCR using primers listed in Table 1 and cloned in to pcDNA™3.1 (+) Mammalian Expression Vector. Plasmid transfection was performed using lipofectamine 2000 (Invitrogen, CA) following the manufacturer instructions. Control siRNA, ANXA1-specific siRNA and CDH1-specific siRNA were purchased from Invitrogen (CA). The siRNA utilized in these experiments included: Negative control: Invitrogen Stealth RNAi siRNA negative control cat number 12935300; Annexin siRNA: Invitrogen stealth siRNA (cat # ANXA1HSS100502) sequence UAACCAUUAUGGCCUUAUGCAAGGC (SEQ ID NO: 1); and E-cadherin siRNA: Invitrogen stealth siRNA (cat # CDH1HSS101669) sequence UUAAUCUCCAGCCAGUUGGCAGUGU (SEQ ID NO: 2). Lipofectamine RNAi MAX (Invitrogen, CA) was used for the siRNA transfection following manufacturer instructions.
(§2) Cells were seeded in 24 well plates at 5×10^4 cells per well. Cells were untreated or incubated with bacteria at an MOI of 1000:1. Cell numbers were counted at indicated time points using a hemocytometer as previously described (Rubinstein et al. 2013). Each experiment was performed in triplicate and repeated at least three times.

HT29 cells = assay: Cell proliferation assay, HT29 cells; format: cell-based, human; details: cells transfected with siRNA; compared to untreated cells; no Fn
Procedure: as §1, §2

β-catenin in 10C cells [1] = assay: Flow cytometry of β-catenin expression after F. nucleatum incubation, 10C cells; format: cell-based, human; details: 10C cells transfected with siRNA, then Fn 12230 MOI approximately 20:1
Procedure: (§3) FIG. 3G are graphs of the results of flow cytometry analysis of β-catenin expression in 10C, HCT 116, and DLD1 cells following transfection with control siRNA (clear bars) or ANXA1-specific siRNA (solid bars) and subsequent incubation with F. nucleatum 12230 at MOI of approximately 20:1 for indicated time periods. The geometric means of cells treated with control siRNA at time 0 was designated as 1. Data are mean values±SD. *** p<0.001. The experiment was performed in duplicates or triplicates and repeated 1-3 times. **p<0.01, ***p<0.001 (two-way ANOVA).
(§4) Approximately a total of 2×10^5 cells were incubated with Fn or purified FadA in 35 mm dish at 37° C. for indicated time periods. After washing with PBS, the cells were incubated with enzyme-free cell dissociation buffer (Thermo Fisher Scientific) for 5 min at 37° C. followed by addition of 1 ml DMEM. The cells were collected and centrifuged at 500 g for 3 minutes. The cell pellet was fixed with 75% cold ethanol and kept at −20° C. The pellet was centrifuged again at 2500 g for 10 minutes and washed with phosphate citrate buffer (200 mM Na2HPO4, 100 mM citric acid, pH 7.4), followed by blocking with PBS containing 2% skim milk at room temperature for 1 hour. […] After washing the cells with PBS, the flow cytometric data were acquired by a BD LSR II flow cytometer and analyzed using Flow Jo software (Tree Star, San Carlos, Calif.).

AA/C1/SB (SB) cells = assay: Cell proliferation assay, non-tumorigenic SB cells; format: cell-based, human; details: cells transfected with siRNA; compared to untreated cells; no Fn
Procedure: as §1, §2

HCT116 cells [2] = assay: Tumor xenograft of siRNA-treated HCT116 cells in nude mice; format: in vivo; details: HCT116 cells treated with siRNA, injected subcutaneously and bilaterally; vs control siRNA; 7 days post injection
Procedure: FIG. 1H are graphs and images of xenografted tumor growth in nude mice following subcutaneous and bilateral inoculation of HCT116 cells transfected with control siRNA (left side) or ANXA1-specific siRNA (right side). The tumor volumes were measured after 7 days post injection (left panel, n=4). For each mouse, the tumor resulting from ANXA1 siRNA-treated cells was normalized to that arising from control siRNA-treated cells which was designated to 100%. The line represents the average. *p<0.05 (unpaired t-test). Representative tumors are shown on the right panel top, tumors arising from control siRNA treated cells; bottom, tumors arising from ANXA1-specific siRNA treated cells.
Four-week old nude mice were purchased from Taconic Biosciences (NY, USA). An inoculum of 1×10^7 HCT 116 cells treated with either control or ANXA1-specific siRNA were injected subcutaneously and bilaterally into the nude mice, with control cells injected on the left side and ANXA1-knockdown cells on the right side. On day 7-9 post-injection, the tumor length and width were measured using calipers and tumor volumes were calculated using the following formula: Volume=(width)^2×length/2.

[3] = test system: F. nucleatum 12230 attachment and invasion to 10C cells; assay: Cell culture attachment and invasion assay of F. nucleatum 12230 to 10C cells; format: cell-based, human; details: 10C transfected with siRNA
Procedure: Fn attachment and invasion to the untreated SB cells were designated as 100%, respectively; all other values were expressed as relative to those obtained with untreated SB. Data are mean values±SEM. *p<0.05, ** p<0.01 and *** p<0.001 (one-way ANOVA).
Data are mean values±SD. The experiment was performed in triplicates and repeated twice. *p<0.05 (student's t-test).
The assay was performed as previously described (Han et al. 2000). Briefly, host cells were seeded in 24 well plates and grown until 80% confluency. Bacteria were added at an MOI 50:1 and incubated for 1 hour at 37° C. in 5% CO2. Following washes with PBS and lysis with water for 20 minutes, serial dilutions of the lysates were plated onto blood agar plates to enumerate the viable bacterial counts. For the invasion assay, bacteria were incubated with the host cells for 3 hours followed by treatment with 300 μg/ml gentamicin and 200 μg/ml metronidazole for 1 hour at 37° C. Following washes with PBS, the cells were lysed with water and intracellular bacterial counts were determined as described above. The levels of attachment and invasion were expressed as the percentage of bacteria recovered following cell lysis relative to the total number of bacteria initially added. Each experiment was performed in triplicate and repeated at least three times.

β-catenin in 10C cells [4] = assay: Immuno-staining of β-catenin nuclear translocation, 10C cells; format: cell-based, human; details: 10C cells transfected with siRNA, then Fn 12230 MOI about 100:1 for 2 hours
Procedure: The images were captured with confocal microscope at 800× magnification. −, no bacteria added. Note the increased expression of β-catenin and its nucleus translocation in response to Fn in control siRNA-treated cells, compared to ANXA1 siRNA-treated cells.
(§5) An aliquot of 1×10^3-1×10^5 cells were seeded into Nunc Lab-Tek II Chamber Slide System (Thermo Fisher Scientific) in 400 μl and allowed to grow for 2-5 days till reaching desired confluency. Following washes with DMEM, the cells were incubated with CFSE-labeled Fn or Alexa Fluor™488-conjugated FadAc, mFadA, and BSA (300 μg/ml) for indicated time periods. Following washes of ten times with DMEM, the cells were fixed in PBS containing 4% paraformaldehyde at room temperature for 15 minutes, followed by neutralization in PBS containing 1% glycine at room temperature for 15 minutes. After blocking with PBS containing 2% skim milk and 0.3% Triton X-100 for 1 hour at 4° C., the cells were incubated overnight at 4° C. with goat anti-human E-cadherin polyclonal antibodies (1:400 dilution, R&D Systems, MN) and rabbit anti-AnnexinA1 polyclonal antibodies (1:400 dilution, Invitrogen) or rabbit anti-β-catenin polyclonal IgG (1:400 dilution, Invitrogen) in blocking solution. […]

β-catenin in DLD1 cells [5] = assay: β-catenin nucleus translocation, DLD1 cells; format: cell-based, human; details: Annexin A1 knocked down by siRNA
Procedure: as §5, with “solution. After washing three times with PBS containing 0.3% Triton X-100, the cells were incubated with Cy3-conjugated donkey anti-goat IgG (1:1000 dilution, Jackson ImmunoResearch, West Grove, Pa.) and Alexa Fluor®680-conjugated donkey anti-rabbit IgG (1:1000 dilution, Invitrogen), washed, and covered in mounting medium containing DAPI (Vector Laboratories, CA, USA).” for “solution.”

β-catenin in DLD1 cells [6] = assay: Flow cytometry of β-catenin expression after F. nucleatum incubation, DLD1 cells; format: cell-based, human; details: DLD1 cells transfected with siRNA, then Fn 12230 MOI approximately 20:1
Procedure: as §3, §4

SW480 cells = assay: Cell proliferation assay, SW480 cells; format: cell-based, human; details: cells transfected with siRNA; compared to untreated cells; no Fn
Procedure: as §1, §2

DLD1 cells = assay: Cell proliferation assay, DLD1 cells; format: cell-based, human; details: cells transfected with siRNA; compared to untreated cells; no Fn
Procedure: as §1, §2

[7] = test system: β-catenin in HCT116 cells; assay: Flow cytometry of β-catenin expression after F. nucleatum incubation, HCT116 cells; format: cell-based, human; details: HCT116 cells transfected with siRNA, then Fn 12230 MOI approximately 20:1
Procedure: as §3, §4

HCT116 cells [8] = assay: Cell proliferation assay, HCT116 cells; format: cell-based, human; details: cells transfected with siRNA; compared to untreated cells; no Fn
Procedure: as §1
Annexin antibodies utilized in these experiments included: Annexin A1 (Thermo Fisher Scientific, cat #71-3400); Annexin A2 (Thermo Fisher Scientific, cat # PA5-27566); Annexin V (Thermo Fisher Scientific, cat # PA5-27872); Annexin A6 (Thermo Fisher Scientific, cat. #720161); and Annexin All (Thermo Fisher Scientific, cat # PA5-68093).
Cells were seeded in 24 well plates at 5×10^4 cells per well. […] Cell numbers were counted at indicated time points using a hemocytometer as previously described (Rubinstein et al. 2013). […]

RKO cells = assay: Cell proliferation assay, RKO cells; format: cell-based, human; details: cells transfected with siRNA; RKO expressed the least Annexin A1
Procedure: as §1, §2

ANXA1-specific siRNA: Invitrogen stealth siRNA cat # ANXA1HSS100502, sequence UAACCAUUAUGGCCUUAUGCAAGGC (SEQ ID NO: 1) (UAACCAUUAUGGCCUUAUGCAAGGC; commercial Invitrogen Stealth siRNA, chemistry not given here)
growth of 10C cells (AA/C1/SB/10C (10C) cells): inhibited the growth
growth of HT29 cells (HT29 cells): inhibited the growth
F. nucleatum-mediated activation of β-catenin expression (β-catenin in 10C cells [1]): abolished
growth of non-tumorigenic SB cells (AA/C1/SB (SB) cells): without affecting
xenografted tumor growth (tumor volume) (HCT116 cells [2]): significantly attenuated tumor growth
Fn binding (attachment) to 10C cells ([3]; Fn 12230 MOI 50:1, 1 hour): effectively reduced
Fn invasion of 10C cells ([3]; Fn 12230 MOI 50:1, 3 hours): effectively reduced
nuclear translocation of β-catenin (β-catenin in 10C cells [4]): abolished; also recorded: inhibited
nucleus translocation of β-catenin (β-catenin in DLD1 cells [5]): abolished
F. nucleatum-mediated activation of β-catenin expression (β-catenin in DLD1 cells [6]): abolished
growth of SW480 cells (SW480 cells): inhibited the growth
growth of DLD1 cells (DLD1 cells): inhibited the growth
F. nucleatum-mediated activation of β-catenin expression [7]: abolished
growth of HCT116 cells (HCT116 cells [8]): inhibited the growth
growth of RKO cells (RKO cells): without affecting
